Measured values: ChEMBL document CHEMBL1201862, “PubChem BioAssay data set” (2004)
Calls of active or inactive are those of the source.

Tests used:
HT-1080 = assay: cytotoxicity in HT1080 fibrosarcoma cells, cell-based, fluorescence readout (AID 620); type: functional; settings: Homo sapiens
[1] = MC4R antagonists, dose response, counter-screen for LGR2 antagonist project, cell-based, plate reader, cherry pick (AID 743444); type: functional;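 note: transfected HEK 293 cells stimulated with alpha-MSH peptide; potency of inhibitors of the alpha-MSH evoked signal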
[2] = LGR2 antagonists, dose response, cell-based, HEK293, CRE-luciferase reporter, cherry pick, set 2 (AID 743343); type: functional;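 note: transfected cells were stimulated with diluted bursicon conditioned medium after compound addition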
cells = type: functional, cell-based
[3] = target: Luciferin 4-monooxygenase (Photinus pyralis, UniProt P08659); assay: Counter Screen for Luciferase-based Assay Positives. [Related pubchem assays: 620, 618, 411 ]
Luciferin 4-monooxygenase, sequence (P08659 whole entry): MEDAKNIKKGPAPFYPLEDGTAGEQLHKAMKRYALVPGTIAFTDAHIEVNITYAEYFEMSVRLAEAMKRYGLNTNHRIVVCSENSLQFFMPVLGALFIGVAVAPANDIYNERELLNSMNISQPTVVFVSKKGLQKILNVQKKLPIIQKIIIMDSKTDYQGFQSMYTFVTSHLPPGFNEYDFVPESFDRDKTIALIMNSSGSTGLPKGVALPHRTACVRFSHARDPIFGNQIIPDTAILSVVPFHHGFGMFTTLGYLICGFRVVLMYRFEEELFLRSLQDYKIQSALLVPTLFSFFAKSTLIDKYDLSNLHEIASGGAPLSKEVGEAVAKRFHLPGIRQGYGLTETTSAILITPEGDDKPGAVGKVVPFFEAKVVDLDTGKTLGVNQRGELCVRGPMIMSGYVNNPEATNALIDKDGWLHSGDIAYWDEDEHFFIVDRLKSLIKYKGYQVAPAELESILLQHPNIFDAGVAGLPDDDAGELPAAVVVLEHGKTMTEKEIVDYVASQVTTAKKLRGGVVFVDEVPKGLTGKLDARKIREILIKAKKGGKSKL

[4] = target: T1, Nuclear receptor subfamily 0 group B member 1 (Homo sapiens, UniProt P51843); type: functional, cell-based;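 note: HEK293T cells transfected with SF-1 and DAX-1 plus StAR promoter luciferase reporter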
T1 sequence (P51843 whole entry): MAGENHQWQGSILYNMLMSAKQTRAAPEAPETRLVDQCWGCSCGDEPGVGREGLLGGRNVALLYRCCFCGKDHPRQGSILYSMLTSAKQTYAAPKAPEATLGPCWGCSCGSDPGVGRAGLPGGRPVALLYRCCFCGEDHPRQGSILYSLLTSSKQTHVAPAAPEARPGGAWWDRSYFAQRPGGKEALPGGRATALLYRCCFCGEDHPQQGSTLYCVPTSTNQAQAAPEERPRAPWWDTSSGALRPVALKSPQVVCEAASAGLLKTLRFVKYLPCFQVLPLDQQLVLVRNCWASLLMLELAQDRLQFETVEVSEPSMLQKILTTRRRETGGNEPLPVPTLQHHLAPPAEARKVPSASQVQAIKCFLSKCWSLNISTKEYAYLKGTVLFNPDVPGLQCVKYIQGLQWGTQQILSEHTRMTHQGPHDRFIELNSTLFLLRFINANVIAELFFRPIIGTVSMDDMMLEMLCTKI

[5] = inhibitors of firefly luciferase expression or activity, dose response, H4 neuroglioma cells, luminescence (AID 1990); type: functional, cell-based
[6] = Luminescence-based dose response cell-based high throughput screening assay for cytotoxic compounds using the IEC-6 intestinal epithelial cell line. [Related pubchem assays: 1858 (Summary AID.), 1825 (Counterscreen.), 1907 (Confirmation screen.)]; type: functional
BJ [7] = assay: cytotoxicity toward BJ-TERT-LT-ST fibroblasts, dose response, cell-based, RAS-independent, luminescence (AID 1935); type: functional; settings: Homo sapiens;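 note: BJ fibroblasts immortalized with TERT plus LT and ST oncogenes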
[8] = cytotoxicity in HEK-293T cells, dose response, cytotoxicity control for BCR NF-kB inhibitor project, luminescence, B-cell screen hits (AID 489021); type: functional, cell-based;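 note: HEK-293T cells carrying an NF-kB luciferase reporter; cells exposed to compound for about 14 hours before viability readout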
[9] = cytotoxicity toward DRD oncogenic fibroblasts, dose response, cell-based, non-viral oncogenic, luminescence (AID 1934); type: functional; settings: Homo sapiens
[10] = inhibitors of SNCA 5'UTR-driven reporter translation, confirmation, H4 neuroglioma cells, luminescence (AID 1988); type: functional, cell-based
BJ [11] = assay: cells; type: functional, cell-based; settings: Homo sapiens
[12] = Luminescence Cell-Based Dose Response HTS to Identify Inhibitors of 5'UTR Stem-Loop Driven Prion Protein mRNA Translation in H4 Neuroglioblastoma Cells. [Related pubchem assays: 1827 (Project Summary), 1813 (Primary HTS)]; type: functional
INS1 = assay: beta cell apoptosis inhibitors, cytokine rescue, dose response, luminescence, retest (AID 449756); type: functional, cell-based; settings: Rattus norvegicus;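 note: cell death triggered by IL-1 beta plus TNF-alpha plus IFN-gamma mixture; protective hits raise ATP signal compared with cytokine alone wells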
BJ [13] = assay: cytotoxicity toward BJ-TERT fibroblasts, dose response, cell-based, RAS-independent, luminescence (AID 1933); type: functional; settings: Homo sapiens
BJ [14] = assay: cytotoxicity toward Ras-transformed BJeLR fibroblasts, dose response, cell-based, alamar blue fluorescence, cherrypicked samples (AID 2631); type: functional; settings: Homo sapiens;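 note: confirmatory dose-response assay in RAS-dependent BJ fibroblasts engineered with TERT, LT and ST, with cytotoxicity read by fluorescence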
[15] = growth suppression of beta-catenin-knockout colon cells, dose response, cell-based, HCT116, human colon tumor (AID 1045); type: functional;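 note: HCT116 colon tumor cells with beta catenin knocked out; cells exposed to compound for 60 hours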
[16] = target: T2, Mannose-6-phosphate isomerase (Homo sapiens, UniProt P34949); assay: inhibitors of human PMI, primary screen, biochemical, fluorescence intensity, coupled assay (AID 1209)
T2 sequence (P34949 whole entry): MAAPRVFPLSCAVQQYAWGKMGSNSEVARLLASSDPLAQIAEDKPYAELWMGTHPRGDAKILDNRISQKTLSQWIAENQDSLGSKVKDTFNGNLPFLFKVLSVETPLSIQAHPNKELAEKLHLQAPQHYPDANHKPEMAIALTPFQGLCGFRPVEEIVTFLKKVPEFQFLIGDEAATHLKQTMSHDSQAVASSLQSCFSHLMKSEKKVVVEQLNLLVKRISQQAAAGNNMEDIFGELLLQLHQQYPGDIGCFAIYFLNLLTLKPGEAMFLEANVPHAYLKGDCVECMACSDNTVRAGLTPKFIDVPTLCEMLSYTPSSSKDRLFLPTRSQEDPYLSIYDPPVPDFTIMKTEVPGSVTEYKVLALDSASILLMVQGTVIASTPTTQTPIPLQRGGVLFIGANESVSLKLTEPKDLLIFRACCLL

[17] = target: T2, Mannose-6-phosphate isomerase; assay: human PMI inhibitors, high substrate, primary screen, biochemical, fluorescence intensity, high mannose 6-phosphate (AID 1220)
[18] = growth suppression of PTEN-null colon cells, dose response, cell-based, HCT116 PTEN knockout (AID 1047); type: functional;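 note: HCT116 colon tumor cells with PTEN knocked out; cells exposed to compound for 60 hours before readout; potency for loss of cell viability measured by luminescence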
[19] = cytotoxicity in HEK-293T cells, dose response, cytotoxicity control for TCR NF-kB inhibitor project, luminescence, T-cell screen hits (AID 489026); type: functional, cell-based;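 note: cells exposed to compound about 14 hours before the viability readout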
[20] = inhibitors of Bluetongue virus cytopathic effect, confirmation, arbovirus, BSR cells (AID 1250); type: functional;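 note: protection from viral cytopathic effect measured as cell viability by ATP luminescence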
Cytochrome P450 2C19 = Cytochrome P450 2C19 (Homo sapiens, UniProt P33261); assay: Cytochrome panel assay with activity outcomes. Panel member name: p450-cyp2c19 Compounds with AC50 equal or less than 10 uM are considered active; type: functional; settings: read-out: AC50
[21] = A Cell Based Secondary Assay To Explore Cytotoxicity of Compounds that Sensitize Mycobacterium Tuberculosis to Beta-Lactam Antibiotics.; type: functional
[22] = Luminescence Cell-Based Dose Response HTS to Identify Activators of Luciferase Translation or Activity in H4 […] Cells. [Related pubchem assays: 1829 (Project Summary), 1814 (Primary HTS)]; type: functional
H4 = assay: Luminescence Cell-Based Dose Response HTS to Identify Activators of 5'UTR Stem-Loop Driven Prion Protein mRNA Translation in H4 Neuroglioblastoma Cells. [Related pubchem assays: 1829 (Project Summary), 1814 (Primary HTS)]; type: functional; settings: Homo sapiens
[23] = Luminescence Cell-Based Dose Confirmation HTS to Identify Activators of 5'UTR Stem-Loop Driven Alpha-Synuclein mRNA Translation in H4 Neuroglioblastoma Cells. [Related pubchem assays: 1829 (Project Summary), 1814 (Primary HTS)]; type: functional
Cytochrome P450 1A2 = target: T3, Cytochrome P450 1A2 (Homo sapiens, UniProt P05177);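 note: PubChem cytochrome P450 panel assay, CYP1A2 panel member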
T3 sequence (P05177 whole entry): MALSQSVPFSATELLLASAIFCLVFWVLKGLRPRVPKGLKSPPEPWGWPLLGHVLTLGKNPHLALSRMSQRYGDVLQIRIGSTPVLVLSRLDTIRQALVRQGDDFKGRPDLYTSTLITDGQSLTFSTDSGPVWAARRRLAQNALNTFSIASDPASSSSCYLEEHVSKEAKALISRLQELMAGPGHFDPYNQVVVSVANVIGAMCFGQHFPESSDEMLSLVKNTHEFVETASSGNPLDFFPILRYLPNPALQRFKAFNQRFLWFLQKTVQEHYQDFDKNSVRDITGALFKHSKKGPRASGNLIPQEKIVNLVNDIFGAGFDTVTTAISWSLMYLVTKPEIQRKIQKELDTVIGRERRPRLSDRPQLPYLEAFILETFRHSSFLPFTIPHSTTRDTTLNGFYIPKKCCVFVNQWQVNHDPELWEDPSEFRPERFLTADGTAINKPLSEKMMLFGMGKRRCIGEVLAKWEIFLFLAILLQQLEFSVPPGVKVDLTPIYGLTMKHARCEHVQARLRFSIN

NADPH oxidase 1 = target: T4, NADPH oxidase 1 (Homo sapiens, UniProt Q9Y5S8); assay: Luminescence-based cell-based dose response assay to identify inhibitors of NADPH oxidase 1 (NOX1).; type: functional
T4 sequence (Q9Y5S8 whole entry): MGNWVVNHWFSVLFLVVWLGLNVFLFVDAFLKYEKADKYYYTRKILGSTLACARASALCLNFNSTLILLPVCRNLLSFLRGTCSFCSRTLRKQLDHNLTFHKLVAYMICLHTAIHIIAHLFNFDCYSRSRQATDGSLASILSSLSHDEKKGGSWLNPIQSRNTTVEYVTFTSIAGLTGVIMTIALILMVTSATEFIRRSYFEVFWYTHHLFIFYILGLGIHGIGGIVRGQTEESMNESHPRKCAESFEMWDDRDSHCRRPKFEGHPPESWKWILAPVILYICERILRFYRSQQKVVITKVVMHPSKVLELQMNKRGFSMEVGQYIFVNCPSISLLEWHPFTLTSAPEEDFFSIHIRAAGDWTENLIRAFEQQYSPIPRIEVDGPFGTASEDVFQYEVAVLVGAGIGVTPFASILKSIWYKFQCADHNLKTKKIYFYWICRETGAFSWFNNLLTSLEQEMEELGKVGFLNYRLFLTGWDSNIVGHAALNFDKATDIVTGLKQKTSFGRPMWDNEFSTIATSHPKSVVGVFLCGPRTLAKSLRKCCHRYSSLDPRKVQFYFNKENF

[24] = target: Peroxisome proliferator-activated receptor gamma/Nuclear receptor coactivator 3 (Homo sapiens, UniProt P37231); type: functional;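 note: agonist potency for raising coactivator recruitment to the receptor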
[25] = target: Peroxisome proliferator-activated receptor gamma/Nuclear receptor coactivator 2 (Homo sapiens, UniProt P37231); type: functional;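 note: agonist potency for raising coactivator recruitment to the receptor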
Peroxisome proliferator-activated receptor gamma/Nuclear receptor coactivator 2, sequence (P37231 whole entry): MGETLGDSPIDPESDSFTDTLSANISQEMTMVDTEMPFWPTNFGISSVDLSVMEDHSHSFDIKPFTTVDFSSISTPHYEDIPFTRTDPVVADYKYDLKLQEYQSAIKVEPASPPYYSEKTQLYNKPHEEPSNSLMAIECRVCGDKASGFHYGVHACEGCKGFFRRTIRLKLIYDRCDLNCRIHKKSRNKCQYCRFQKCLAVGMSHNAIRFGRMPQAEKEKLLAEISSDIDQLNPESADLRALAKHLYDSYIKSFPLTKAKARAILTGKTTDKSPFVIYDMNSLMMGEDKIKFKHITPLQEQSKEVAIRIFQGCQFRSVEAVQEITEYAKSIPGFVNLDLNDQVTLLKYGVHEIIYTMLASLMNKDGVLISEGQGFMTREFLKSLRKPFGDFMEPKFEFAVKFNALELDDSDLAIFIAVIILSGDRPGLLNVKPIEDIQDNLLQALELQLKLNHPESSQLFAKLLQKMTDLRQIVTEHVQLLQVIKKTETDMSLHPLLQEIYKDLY
Peroxisome proliferator-activated receptor gamma/Nuclear receptor coactivator 2, sequence (Q15596 whole entry, further chain): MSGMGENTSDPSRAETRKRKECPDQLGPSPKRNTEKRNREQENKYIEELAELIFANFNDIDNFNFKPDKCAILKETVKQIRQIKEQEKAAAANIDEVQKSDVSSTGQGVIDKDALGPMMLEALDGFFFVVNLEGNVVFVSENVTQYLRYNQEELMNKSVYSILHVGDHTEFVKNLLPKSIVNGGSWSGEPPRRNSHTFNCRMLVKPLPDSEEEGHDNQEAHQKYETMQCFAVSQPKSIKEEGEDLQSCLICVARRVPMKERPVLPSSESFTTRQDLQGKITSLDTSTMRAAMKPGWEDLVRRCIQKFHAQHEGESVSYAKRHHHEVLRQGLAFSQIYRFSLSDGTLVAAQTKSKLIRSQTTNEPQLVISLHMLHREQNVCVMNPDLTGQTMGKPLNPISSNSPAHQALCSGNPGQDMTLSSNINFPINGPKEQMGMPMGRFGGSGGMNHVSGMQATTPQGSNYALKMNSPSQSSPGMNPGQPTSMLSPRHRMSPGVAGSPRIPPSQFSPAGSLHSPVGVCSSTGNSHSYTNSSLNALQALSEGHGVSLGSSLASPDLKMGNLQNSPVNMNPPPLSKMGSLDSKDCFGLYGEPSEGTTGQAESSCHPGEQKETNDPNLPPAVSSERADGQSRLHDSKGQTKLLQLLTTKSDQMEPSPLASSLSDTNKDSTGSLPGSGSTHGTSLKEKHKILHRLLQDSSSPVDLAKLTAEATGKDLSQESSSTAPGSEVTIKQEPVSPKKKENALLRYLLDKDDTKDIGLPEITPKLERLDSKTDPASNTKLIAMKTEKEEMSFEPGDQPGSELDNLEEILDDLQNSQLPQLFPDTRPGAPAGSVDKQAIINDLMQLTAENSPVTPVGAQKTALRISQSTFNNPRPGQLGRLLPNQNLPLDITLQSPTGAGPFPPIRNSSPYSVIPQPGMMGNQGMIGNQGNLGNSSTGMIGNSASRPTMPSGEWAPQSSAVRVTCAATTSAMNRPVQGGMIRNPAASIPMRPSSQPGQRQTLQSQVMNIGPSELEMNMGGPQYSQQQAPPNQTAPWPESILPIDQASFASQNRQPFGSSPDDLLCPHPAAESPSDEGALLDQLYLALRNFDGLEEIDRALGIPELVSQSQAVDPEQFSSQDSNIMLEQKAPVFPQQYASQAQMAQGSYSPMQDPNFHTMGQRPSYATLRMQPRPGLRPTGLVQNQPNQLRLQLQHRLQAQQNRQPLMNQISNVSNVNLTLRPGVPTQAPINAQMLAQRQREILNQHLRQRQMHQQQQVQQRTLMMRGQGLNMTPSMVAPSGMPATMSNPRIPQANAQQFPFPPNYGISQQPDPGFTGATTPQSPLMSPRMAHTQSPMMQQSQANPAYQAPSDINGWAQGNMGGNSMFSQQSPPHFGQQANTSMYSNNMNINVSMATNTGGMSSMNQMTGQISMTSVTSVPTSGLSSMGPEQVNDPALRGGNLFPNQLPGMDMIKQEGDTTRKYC

[26] = target: Peroxisome proliferator-activated receptor gamma/Nuclear receptor coactivator 1 (Homo sapiens, UniProt P37231); type: functional;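 note: agonist potency as compounds enhance coactivator SRC-1 recruitment to PPARgamma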
Peroxisome proliferator-activated receptor gamma/Nuclear receptor coactivator 1, sequence (P37231 whole entry): as the sequence (P37231 whole entry) above
Peroxisome proliferator-activated receptor gamma/Nuclear receptor coactivator 1, sequence (Q15788 whole entry, further chain): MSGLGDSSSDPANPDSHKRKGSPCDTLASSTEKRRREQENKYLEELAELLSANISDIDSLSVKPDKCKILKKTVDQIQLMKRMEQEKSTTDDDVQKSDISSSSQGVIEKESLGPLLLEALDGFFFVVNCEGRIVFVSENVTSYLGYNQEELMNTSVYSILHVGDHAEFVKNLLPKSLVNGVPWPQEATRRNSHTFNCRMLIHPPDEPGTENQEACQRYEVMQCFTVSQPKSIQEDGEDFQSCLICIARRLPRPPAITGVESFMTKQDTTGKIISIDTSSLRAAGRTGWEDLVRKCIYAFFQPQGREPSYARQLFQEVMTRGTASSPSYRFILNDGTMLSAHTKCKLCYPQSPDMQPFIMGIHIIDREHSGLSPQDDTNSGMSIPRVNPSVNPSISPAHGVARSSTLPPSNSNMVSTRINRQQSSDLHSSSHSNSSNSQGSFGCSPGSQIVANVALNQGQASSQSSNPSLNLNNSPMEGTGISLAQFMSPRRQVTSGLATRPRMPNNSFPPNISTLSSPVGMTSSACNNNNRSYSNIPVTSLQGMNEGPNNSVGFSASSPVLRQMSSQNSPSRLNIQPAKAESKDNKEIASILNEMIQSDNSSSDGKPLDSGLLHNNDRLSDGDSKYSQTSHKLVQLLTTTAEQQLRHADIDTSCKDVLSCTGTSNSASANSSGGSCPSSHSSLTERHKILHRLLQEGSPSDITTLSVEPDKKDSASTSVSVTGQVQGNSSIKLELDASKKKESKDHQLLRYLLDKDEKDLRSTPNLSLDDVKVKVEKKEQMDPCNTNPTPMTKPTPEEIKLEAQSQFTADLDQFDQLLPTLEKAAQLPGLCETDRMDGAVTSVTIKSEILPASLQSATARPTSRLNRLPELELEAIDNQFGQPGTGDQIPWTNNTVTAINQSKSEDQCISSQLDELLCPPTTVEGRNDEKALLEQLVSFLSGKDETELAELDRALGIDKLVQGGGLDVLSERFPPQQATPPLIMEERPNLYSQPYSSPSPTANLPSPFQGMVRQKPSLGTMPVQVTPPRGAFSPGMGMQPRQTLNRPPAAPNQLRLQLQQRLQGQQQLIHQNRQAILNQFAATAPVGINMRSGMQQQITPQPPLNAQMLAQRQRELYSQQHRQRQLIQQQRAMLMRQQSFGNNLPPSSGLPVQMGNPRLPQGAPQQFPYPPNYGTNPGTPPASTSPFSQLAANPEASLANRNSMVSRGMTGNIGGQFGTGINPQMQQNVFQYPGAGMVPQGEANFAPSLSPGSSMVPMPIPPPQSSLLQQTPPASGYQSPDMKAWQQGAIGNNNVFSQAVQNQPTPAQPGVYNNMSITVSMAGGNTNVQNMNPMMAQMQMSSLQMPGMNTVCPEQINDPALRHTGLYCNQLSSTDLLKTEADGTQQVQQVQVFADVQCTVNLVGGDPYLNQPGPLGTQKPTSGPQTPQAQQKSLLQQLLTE

Aspartyl aminopeptidase = Aspartyl aminopeptidase (Plasmodium falciparum 3D7, UniProt Q8I2J3)
Aspartyl aminopeptidase, sequence (Q8I2J3 whole entry): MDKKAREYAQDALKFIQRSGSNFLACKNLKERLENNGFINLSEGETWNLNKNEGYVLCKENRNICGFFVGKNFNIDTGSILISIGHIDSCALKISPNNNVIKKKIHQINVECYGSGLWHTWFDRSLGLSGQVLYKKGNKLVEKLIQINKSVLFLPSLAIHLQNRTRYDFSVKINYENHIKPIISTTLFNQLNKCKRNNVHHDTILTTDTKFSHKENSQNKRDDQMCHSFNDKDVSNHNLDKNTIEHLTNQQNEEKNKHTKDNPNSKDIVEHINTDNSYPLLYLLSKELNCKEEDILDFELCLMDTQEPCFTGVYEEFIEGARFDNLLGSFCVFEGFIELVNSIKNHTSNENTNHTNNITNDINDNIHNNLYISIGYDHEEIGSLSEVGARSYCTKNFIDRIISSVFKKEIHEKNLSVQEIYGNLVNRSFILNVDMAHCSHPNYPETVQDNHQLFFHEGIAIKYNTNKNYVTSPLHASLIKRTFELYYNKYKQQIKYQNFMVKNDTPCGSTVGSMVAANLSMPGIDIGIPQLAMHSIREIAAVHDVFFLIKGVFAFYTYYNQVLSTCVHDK

Procathepsin L = Procathepsin L (Homo sapiens, UniProt P07711)
Vero [27] = assay: cells; type: functional; settings: Chlorocebus sabaeus
Vero [28] = assay: cells; type: functional, cell-based; settings: Chlorocebus sabaeus

SMILES: CC(C)Nc1ncnc2c1cnn2-c1ccc(Cl)cc1
- EC50 (HT-1080): > 50 µM (not active)
- AC50 [1]: 13.3 µM (active)
- AC50 [2]: 11.9 µM (active)
- IC50 (cells): > 67.5 µM (inactive)
- EC50 [3]: 15.3 µM (active)
- IC50 [4]: > 67.5 µM (inactive)

SMILES: COc1ccc(Cc2nc(-c3ccc(NC(=O)c4cccnc4)cc3)no2)cc1
- EC50 [5]: 11.2 µM (active)
- IC50 [6]: 0.649 µM (active)
- EC50 (BJ [7]): > 150 µM (not active)
- IC50 [8]: > 80 µM (inactive)
- EC50 [9]: > 150 µM (not active)
- EC50 [10]: 5.99 µM (active)
- EC50 (BJ [11]): 2.38 µM (active)
- EC50 [12]: 8.73 µM (active)
- AC50 (INS1): < 0.195 µM (active)
- EC50 (BJ [13]): > 150 µM (inconclusive)
- EC50 (BJ [14]): 58.4 µM (active)

SMILES: O=C(NCc1ccco1)c1cccn2c(=O)c3cc4ccccc4cc3nc12
- EC50 [15]: 10.7 µM (active)
- IC50 [16]: > 50 µM (not active)
- IC50 [17]: > 50 µM (not active)
- EC50 [18]: 12.4 µM (active)

SMILES: CCOCCOC(=O)c1[nH]c2c(c1C)C(=O)CC(c1ccccc1)C2 (stereo unspecified)
- IC50 [6]: 0.521 µM (active)
- EC50 (BJ [7]): 0.756 µM (active)
- IC50 [19]: > 80 µM (inactive)
- EC50 [9]: 1.29 µM (active)
- EC50 (BJ [11]): 12.6 µM (active)
- EC50 (BJ [13]): 0.851 µM (inconclusive)
- EC50 (BJ [14]): < 0.104 µM (inconclusive)

SMILES: O=c1oc(-c2cccs2)nc2ccc(Br)cc12
- IC50 [20]: 28.9 µM (active)
- AC50 (Cytochrome P450 2C19): 22.4 µM (inconclusive)

SMILES: CS(=O)(=O)N(Cc1ccccc1)c1ccc(C(=O)N2CCN(c3cccc(Cl)c3)CC2)cc1
- CC50 [21]: > 40 µM (active)

SMILES: O=C(Oc1oc(-c2ccco2)nc1/C=N/c1ccc(Cl)cc1)c1ccco1
- EC50 [22]: 21.7 µM (active)
- EC50 (H4): 31.7 µM (active)
- EC50 [23]: 14.3 µM (active)
- AC50 (Cytochrome P450 1A2): 15.8 µM (inconclusive)
- AC50 (Cytochrome P450 2C19): 14.1 µM (inconclusive)
- CC50 [21]: > 40 µM (active)

SMILES: CC(=O)N1c2ccccc2S(=O)(=O)c2ccccc21
- IC50 (NADPH oxidase 1): > 20 µM (not active)

SMILES: CC1CCc2c(sc3nc(SCC(=O)NCc4ccco4)nc(N)c23)C1 (stereo unspecified)
- EC50 [24]: > 79.4 µM (not active)
- EC50 [25]: > 79.4 µM (not active)
- EC50 [26]: > 79.4 µM (not active)

SMILES: O=C(O)CSc1nnc[nH]1
- IC50 (Aspartyl aminopeptidase): 0.202 µM (active)
- IC50 (Procathepsin L): > 59.6 µM (not active)

SMILES: O=C(Nc1ccc(Br)cc1Cl)Nn1cnnc1
- IC50 (Aspartyl aminopeptidase): 0.711 µM (active)
- IC50 (Procathepsin L): > 59.6 µM (not active)

SMILES: [O-][S+]1c2ccccc2Nc2ccccc21
- IC50 (NADPH oxidase 1): > 20 µM (not active)

SMILES: CCc1ccc(CC2S/C(=C(\C#N)C(C)=O)NC2=O)cc1 (stereo unspecified)
- IC50 [20]: 27.9 µM (active)
- CC50 (Vero [27]): > 25 µM (active)
- IC50 (Vero [28]): 13.2 µM (active)

SMILES: O=C(C1=C[C@@H](c2ccc(Br)cc2)C[C@@H](OCCCCO)O1)N1CCN(Cc2ccc3c(c2)OCO3)CC1
- EC50 [5]: 16.3 µM (active)
- EC50 [24]: > 79.4 µM (not active)
- EC50 [25]: > 79.4 µM (not active)
- EC50 [10]: 20.5 µM (active)
- EC50 [26]: > 79.4 µM (not active)

SMILES: Cc1ccccc1NC(=O)c1cnc2ccccn2c1=O
- EC50 (HT-1080): > 50 µM (not active)
- EC50 [3]: 46.4 µM (active)
